Experimental data as given in patent US11524961B2, “JAK kinase inhibitor and preparation method and use thereof” (Shanghai Longwood Biopharmaceuticals Co., Ltd., priority 2017, dated 2022).
Like-named read-outs stand apart in the source and are kept apart here.

Experiments:
JAK3 = JAK3 (Homo sapiens (Human), UniProt P52333); test: JAK3 enzyme activity inhibition (LANCE Ultra kinase assay); conditions: read-out: JAK3 inhibitory activity IC50
JAK2 = JAK2 (Homo sapiens (Human), UniProt O60674); test: JAK2 enzyme activity inhibition (LANCE Ultra kinase assay)
JAK2, sequence (O60674 whole entry): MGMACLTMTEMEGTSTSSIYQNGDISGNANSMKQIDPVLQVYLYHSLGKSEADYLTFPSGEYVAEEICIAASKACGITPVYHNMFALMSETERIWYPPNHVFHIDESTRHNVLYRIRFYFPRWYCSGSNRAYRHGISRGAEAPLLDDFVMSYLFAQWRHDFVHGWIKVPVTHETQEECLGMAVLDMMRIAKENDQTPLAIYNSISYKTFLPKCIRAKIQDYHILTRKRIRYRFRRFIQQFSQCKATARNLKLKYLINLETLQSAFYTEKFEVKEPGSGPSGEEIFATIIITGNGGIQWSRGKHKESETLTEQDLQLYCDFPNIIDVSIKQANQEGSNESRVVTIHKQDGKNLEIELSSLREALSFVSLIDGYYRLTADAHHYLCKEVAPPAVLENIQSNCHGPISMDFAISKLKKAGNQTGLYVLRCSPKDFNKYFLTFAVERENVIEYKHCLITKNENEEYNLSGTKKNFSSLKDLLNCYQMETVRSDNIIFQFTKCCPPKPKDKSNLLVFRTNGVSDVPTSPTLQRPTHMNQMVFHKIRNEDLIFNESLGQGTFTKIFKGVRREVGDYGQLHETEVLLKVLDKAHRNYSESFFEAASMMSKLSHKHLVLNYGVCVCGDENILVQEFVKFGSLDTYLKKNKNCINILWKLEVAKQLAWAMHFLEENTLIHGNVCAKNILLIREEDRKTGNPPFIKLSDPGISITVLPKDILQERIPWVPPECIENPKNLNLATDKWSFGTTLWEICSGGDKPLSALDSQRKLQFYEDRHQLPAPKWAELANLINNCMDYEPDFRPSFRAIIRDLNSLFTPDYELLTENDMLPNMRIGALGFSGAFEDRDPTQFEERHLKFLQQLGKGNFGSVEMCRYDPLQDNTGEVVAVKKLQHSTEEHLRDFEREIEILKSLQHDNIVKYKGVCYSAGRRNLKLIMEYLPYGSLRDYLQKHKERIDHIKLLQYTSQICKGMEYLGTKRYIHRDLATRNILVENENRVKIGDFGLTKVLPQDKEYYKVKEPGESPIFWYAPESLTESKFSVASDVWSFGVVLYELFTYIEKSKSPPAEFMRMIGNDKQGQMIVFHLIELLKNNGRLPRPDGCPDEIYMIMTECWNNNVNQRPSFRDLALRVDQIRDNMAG

JAK3, sequence (P52333 whole entry): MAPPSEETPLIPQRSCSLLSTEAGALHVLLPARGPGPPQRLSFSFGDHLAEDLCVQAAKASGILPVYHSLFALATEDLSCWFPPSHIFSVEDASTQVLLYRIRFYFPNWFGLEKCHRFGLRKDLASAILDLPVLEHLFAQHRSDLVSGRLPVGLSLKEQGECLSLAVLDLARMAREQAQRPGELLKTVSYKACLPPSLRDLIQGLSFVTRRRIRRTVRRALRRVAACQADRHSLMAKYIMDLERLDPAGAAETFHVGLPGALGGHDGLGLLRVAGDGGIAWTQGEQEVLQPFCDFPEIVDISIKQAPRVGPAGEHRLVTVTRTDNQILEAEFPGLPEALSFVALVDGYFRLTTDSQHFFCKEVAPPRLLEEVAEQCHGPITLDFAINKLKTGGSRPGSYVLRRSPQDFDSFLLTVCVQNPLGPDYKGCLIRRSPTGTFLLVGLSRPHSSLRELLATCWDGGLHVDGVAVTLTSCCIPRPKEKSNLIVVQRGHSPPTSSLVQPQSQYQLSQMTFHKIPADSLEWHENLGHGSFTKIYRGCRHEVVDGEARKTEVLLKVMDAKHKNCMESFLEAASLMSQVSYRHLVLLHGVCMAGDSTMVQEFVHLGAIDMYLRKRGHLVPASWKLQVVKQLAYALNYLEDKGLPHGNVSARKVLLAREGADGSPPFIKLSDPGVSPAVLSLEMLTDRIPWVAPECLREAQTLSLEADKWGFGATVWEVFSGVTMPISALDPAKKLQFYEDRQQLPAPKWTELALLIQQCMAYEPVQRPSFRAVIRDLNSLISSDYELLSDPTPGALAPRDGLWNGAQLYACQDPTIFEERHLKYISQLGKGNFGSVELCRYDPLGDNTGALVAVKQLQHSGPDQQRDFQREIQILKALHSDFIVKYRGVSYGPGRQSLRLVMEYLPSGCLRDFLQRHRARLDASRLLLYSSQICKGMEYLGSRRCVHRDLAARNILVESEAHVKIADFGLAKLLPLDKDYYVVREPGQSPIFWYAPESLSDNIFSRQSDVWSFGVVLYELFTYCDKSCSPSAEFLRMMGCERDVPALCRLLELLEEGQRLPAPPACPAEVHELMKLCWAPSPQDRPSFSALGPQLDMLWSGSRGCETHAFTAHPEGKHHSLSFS

| Compound | IC50 (JAK3) | IC50 (JAK2) | IC50 (JAK2; read-out: JAK2 inhibitory activity IC50, class symbols) |
| --- | --- | --- | --- |
| CCS(=O)(=NC1CC1)N1CC(CC#N)(n2cc(-c3ncnc4[nH]ccc34)cn2)C1 (centres unmarked) [LW104-O] | 0.294 µM |  |  |
| CCS(=N)(=O)N1CC(CC#N)(n2cc(-c3ncnc4[nH]ccc34)cn2)C1 (single isomer, unassigned) [LW104-J] | 0.116 µM | 0.0001 to 0.01 µM |  |
| N#CCC1(n2cc(-c3ncnc4[nH]ccc34)cn2)CN(S(=N)(=O)c2ccccc2)C1 (centres unmarked) [LW104-C] | 0.427 µM | 0.01 to 0.1 µM |  |
| CCS(=N)(=O)N1CC(CC#N)(n2cc(-c3ncnc4[nH]ccc34)cn2)C1 (centres unmarked) [LW104-B] | 0.136 µM | 0.0001 to 0.01 µM |  |
| N#CCC1(n2cc(-c3ncnc4[nH]ccc34)cn2)CN(S(=O)(=NC2CC2)C2CC2)C1 (centres unmarked) [LW104-N] | 0.203 µM | 0.0001 to 0.01 µM |  |
| CN=S(C)(=O)N1CC(CC#N)(n2cc(-c3ncnc4[nH]ccc34)cn2)C1 (centres unmarked) [LW104-F] | 0.145 µM | 0.0001 to 0.01 µM |  |
| N#CCC1(n2cc(-c3ncnc4[nH]ccc34)cn2)CN(S(=N)(=O)C2CC2)C1 (centres unmarked) [LW104-E] | 0.187 µM | 0.0001 to 0.01 µM |  |
| CC(C)S(=N)(=O)N1CC(CC#N)(n2cc(-c3ncnc4[nH]ccc34)cn2)C1 (centres unmarked) [LW104-D] | 0.19 µM |  |  |
| CC(C)N=S(C)(=O)N1CC(CC#N)(n2cc(-c3ncnc4[nH]ccc34)cn2)C1 (centres unmarked) [LW104-I] | 0.649 µM | 0.01 to 0.1 µM |  |
| CCS(=N)(=O)N1CC(CC#N)(n2cc(-c3ncnc4[nH]ccc34)cn2)C1 (single isomer, unassigned) [LW104-K] | 0.0693 µM |  | 0.0001 to 0.01 µM |
| CCS(=O)(=NC)N1CC(CC#N)(n2cc(-c3ncnc4[nH]ccc34)cn2)C1 (centres unmarked) [LW104-P] | 0.216 µM | 0.01 to 0.1 µM |  |
| CN=S(=O)(C1CC1)N1CC(CC#N)(n2cc(-c3ncnc4[nH]ccc34)cn2)C1 (centres unmarked) [LW104-L] | 0.158 µM | 0.0001 to 0.01 µM |  |
| CCN=S(=O)(C1CC1)N1CC(CC#N)(n2cc(-c3ncnc4[nH]ccc34)cn2)C1 (centres unmarked) [LW104-M] | 0.194 µM |  |  |
| CS(=N)(=O)N1CC(CC#N)(n2cc(-c3ncnc4[nH]ccc34)cn2)C1 (centres unmarked) [LW104-A] | 0.0983 µM | 0.0001 to 0.01 µM |  |
| CC(N=[S@@](C)(=O)N1CC(CC#N)(n2cc(-c3ncnc4[nH]ccc34)cn2)C1)c1ccccc1 (stereo in doubt) [LW104-G] |  | 0.01 to 0.1 µM |  |
